Measured values published in BindingDB's records for doi:10.1021/cb4002552 (University of California, 2013).

target: Neutrophil gelatinase-associated lipocalin (Homo sapiens, UniProt P80188); assay: Fluorescence quenching titrations; conditions: pH 7.4
Method: The ligand solutions (10uM siderophore, TBS with 5% (v/v) DMSO, pH 7.4) were prepared from 4mM stock solution in DMSO. The protein solution was prepared as previously reported. Small amounts of ligand solution were mixed with the protein solution and equilibrated for at least 4 min before fluorescence measurement. The data was fit to a one-to-one binding model with two parameters, Kd and fluorescence response, using the program DYNAFIT.

Chain of Neutrophil gelatinase-associated lipocalin (P80188 whole entry): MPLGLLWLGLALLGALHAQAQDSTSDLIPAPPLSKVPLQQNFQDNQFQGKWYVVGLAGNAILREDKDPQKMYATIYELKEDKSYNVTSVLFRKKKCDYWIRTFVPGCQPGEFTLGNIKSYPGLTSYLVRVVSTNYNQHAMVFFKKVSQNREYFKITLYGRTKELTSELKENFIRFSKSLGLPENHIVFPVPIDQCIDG

Kd [nM]	Structure (SMILES)
12	C[C@@H](O)[C@H](NC(=O)c1cccc(O)c1O)C(=O)N(CCCNC(=O)c1cccc(O)c1O)CCCNC(=O)c1cccc(O)c1O [Fluvibactin A]
18	C[C@@H](O)[C@H](NC(=O)c1cccc(O)c1O)C(=O)NCCCN(CCCNC(=O)c1cccc(O)c1O)C(=O)[C@@H](NC(=O)c1cccc(O)c1O)[C@@H](C)O [Vibriobactin A]

Structure (SMILES)	Kd [nM]
C[C@H]1OC(c2cccc(O)c2O)=N[C@@H]1C(=O)N(CCCNC(=O)c1cccc(O)c1O)CCCNC(=O)c1cccc(O)c1O [Fluvibactin]	34
